# According to US20230210831A1, “CHRONIC KIDNEY DISEASE TREATMENT OR PREVENTION METHOD” (Japan Tobacco Inc., priority 2019, published 2023):
# Experiments:
# Type in all cases: cell-based
# [1] = system: Salmonella typhimurium TA98; assay: Ames test (reverse mutation test), TA98
# Procedure: (§1) The solvent used herein was dimethyl sulfoxide (DMSO, 100 µL/plate).
# (§2) The mixtures were preincubated at 37° C. for 20 minutes while shaking. […] Two plates per treatment were used.
# [2] = system: Salmonella typhimurium TA1537; assay: Ames test (reverse mutation test), TA1537
# Procedure: as §1, §2
# [3] = system: Salmonella typhimurium TA100; assay: Ames test (reverse mutation test), TA100
# Procedure: as §1, §2
# [4] = system: Salmonella typhimurium TA1535; assay: Ames test (reverse mutation test), TA1535
# Procedure: as §1, §2
# [5] = system: Escherichia coli WP2uvrA; assay: Ames test (reverse mutation test), WP2uvrA
# Procedure: as §1, §2
compound,measurement,setting,value
Nc1cc(-c2cccc(OC(F)(F)F)c2)n(-c2cccc(F)c2)n1 [Metabolite G],Number of revertant colonies TA98,"[1]; S9 Mix +, dose 2.3 µg/plate",35
same,Number of revertant colonies TA98,"[1]; S9 Mix +, dose 6.9 µg/plate",63
same,Number of revertant colonies TA98,"[1]; S9 Mix +, dose 21 µg/plate",76
same,Number of revertant colonies TA98,"[1]; S9 Mix +, dose 62 µg/plate",75
same,Number of revertant colonies TA98,"[1]; S9 Mix +, dose 185 µg/plate",45
same,Number of revertant colonies TA98,"[1]; S9 Mix +, dose 556 µg/plate",12
same,Number of revertant colonies TA98,"[1]; S9 Mix +, dose 1667 µg/plate",11
same,Number of revertant colonies TA98,"[1]; S9 Mix +, dose 5000 µg/plate",0
same,Number of revertant colonies TA98,"[1]; S9 Mix -, dose 2.3 µg/plate",31
same,Number of revertant colonies TA98,"[1]; S9 Mix -, dose 6.9 µg/plate",30
same,Number of revertant colonies TA98,"[1]; S9 Mix -, dose 21 µg/plate",31
same,Number of revertant colonies TA98,"[1]; S9 Mix -, dose 62 µg/plate",30
same,Number of revertant colonies TA98,"[1]; S9 Mix -, dose 185 µg/plate",13
same,Number of revertant colonies TA98,"[1]; S9 Mix -, dose 556 µg/plate",15
same,Number of revertant colonies TA98,"[1]; S9 Mix -, dose 1667 µg/plate",8
same,Number of revertant colonies TA98,"[1]; S9 Mix -, dose 5000 µg/plate",0
same,Number of revertant colonies TA1537,"[2]; S9 Mix +, dose 2.3 µg/plate",13
same,Number of revertant colonies TA1537,"[2]; S9 Mix +, dose 6.9 µg/plate",13
same,Number of revertant colonies TA1537,"[2]; S9 Mix +, dose 21 µg/plate",16
same,Number of revertant colonies TA1537,"[2]; S9 Mix +, dose 62 µg/plate",15
same,Number of revertant colonies TA1537,"[2]; S9 Mix +, dose 185 µg/plate",13
same,Number of revertant colonies TA1537,"[2]; S9 Mix +, dose 556 µg/plate",0
same,Number of revertant colonies TA1537,"[2]; S9 Mix +, dose 1667 µg/plate",0
same,Number of revertant colonies TA1537,"[2]; S9 Mix +, dose 5000 µg/plate",0
same,Number of revertant colonies TA1537,"[2]; S9 Mix -, dose 2.3 µg/plate",15
same,Number of revertant colonies TA1537,"[2]; S9 Mix -, dose 6.9 µg/plate",15
same,Number of revertant colonies TA1537,"[2]; S9 Mix -, dose 21 µg/plate",17
same,Number of revertant colonies TA1537,"[2]; S9 Mix -, dose 62 µg/plate",7
same,Number of revertant colonies TA1537,"[2]; S9 Mix -, dose 185 µg/plate",0
same,Number of revertant colonies TA1537,"[2]; S9 Mix -, dose 556 µg/plate",0
same,Number of revertant colonies TA1537,"[2]; S9 Mix -, dose 1667 µg/plate",0
same,Number of revertant colonies TA1537,"[2]; S9 Mix -, dose 5000 µg/plate",0
same,Number of revertant colonies TA100,"[3]; S9 Mix +, dose 2.3 µg/plate",153
same,Number of revertant colonies TA100,"[3]; S9 Mix +, dose 6.9 µg/plate",248
same,Number of revertant colonies TA100,"[3]; S9 Mix +, dose 21 µg/plate",506
same,Number of revertant colonies TA100,"[3]; S9 Mix +, dose 62 µg/plate",630
same,Number of revertant colonies TA100,"[3]; S9 Mix +, dose 185 µg/plate",380
same,Number of revertant colonies TA100,"[3]; S9 Mix +, dose 556 µg/plate",82
same,Number of revertant colonies TA100,"[3]; S9 Mix +, dose 1667 µg/plate",94
same,Number of revertant colonies TA100,"[3]; S9 Mix +, dose 5000 µg/plate",226
same,Number of revertant colonies TA100,"[3]; S9 Mix -, dose 2.3 µg/plate",91
same,Number of revertant colonies TA100,"[3]; S9 Mix -, dose 6.9 µg/plate",101
same,Number of revertant colonies TA100,"[3]; S9 Mix -, dose 21 µg/plate",93
same,Number of revertant colonies TA100,"[3]; S9 Mix -, dose 62 µg/plate",90
same,Number of revertant colonies TA100,"[3]; S9 Mix -, dose 185 µg/plate",80
same,Number of revertant colonies TA100,"[3]; S9 Mix -, dose 556 µg/plate",59
same,Number of revertant colonies TA100,"[3]; S9 Mix -, dose 1667 µg/plate",61
same,Number of revertant colonies TA100,"[3]; S9 Mix -, dose 5000 µg/plate",47
same,potential to induce reverse mutations,[3]; TA100 with S9 mix,showed potential to induce reverse mutations
same,Number of revertant colonies TA1535,"[4]; S9 Mix +, dose 556 µg/plate",5
same,Number of revertant colonies TA1535,"[4]; S9 Mix +, dose 1667 µg/plate",4
same,Number of revertant colonies TA1535,"[4]; S9 Mix -, dose 185 µg/plate",9
same,Number of revertant colonies TA1535,"[4]; S9 Mix -, dose 556 µg/plate",0
same,Number of revertant colonies TA1535,"[4]; S9 Mix -, dose 1667 µg/plate",0
same,potential to induce reverse mutations,[4]; TA1535 without S9 mix,showed potential to induce reverse mutations
same,Number of revertant colonies WP2uvrA,"[5]; S9 Mix +, dose 2.3 µg/plate",34
same,Number of revertant colonies WP2uvrA,"[5]; S9 Mix +, dose 6.9 µg/plate",39
same,Number of revertant colonies WP2uvrA,"[5]; S9 Mix +, dose 21 µg/plate",22
same,Number of revertant colonies WP2uvrA,"[5]; S9 Mix +, dose 62 µg/plate",24
same,Number of revertant colonies WP2uvrA,"[5]; S9 Mix +, dose 185 µg/plate",16
same,Number of revertant colonies WP2uvrA,"[5]; S9 Mix +, dose 556 µg/plate",14
same,Number of revertant colonies WP2uvrA,"[5]; S9 Mix +, dose 1667 µg/plate",9
same,Number of revertant colonies WP2uvrA,"[5]; S9 Mix +, dose 5000 µg/plate",14
same,Number of revertant colonies WP2uvrA,"[5]; S9 Mix -, dose 2.3 µg/plate",26
same,Number of revertant colonies WP2uvrA,"[5]; S9 Mix -, dose 6.9 µg/plate",23
same,Number of revertant colonies WP2uvrA,"[5]; S9 Mix -, dose 21 µg/plate",16
same,Number of revertant colonies WP2uvrA,"[5]; S9 Mix -, dose 62 µg/plate",14
same,Number of revertant colonies WP2uvrA,"[5]; S9 Mix -, dose 185 µg/plate",15
same,Number of revertant colonies WP2uvrA,"[5]; S9 Mix -, dose 556 µg/plate",10
same,Number of revertant colonies WP2uvrA,"[5]; S9 Mix -, dose 1667 µg/plate",17
same,Number of revertant colonies WP2uvrA,"[5]; S9 Mix -, dose 5000 µg/plate",6
